Here are results for 27 compounds from patent US7879863B2, “Aniline derivatives” (Ajinomoto Co., Inc., priority 2004, dated 2011).

The structures appear in SMILES notation. Counter-ions that a name gives are not always drawn.

As usually defined, the IC50 is the concentration that inhibits the measured activity by half. Read a high IC50 as lower potency.

The target in this test is T1, human activated tissue kallikrein (Homo sapiens, UniProt P06870).
T1 construct: 6xHis (C); made in house; host or cells: baculovirus / Sf21 insect cells
T1 sequence (P06870 25-262): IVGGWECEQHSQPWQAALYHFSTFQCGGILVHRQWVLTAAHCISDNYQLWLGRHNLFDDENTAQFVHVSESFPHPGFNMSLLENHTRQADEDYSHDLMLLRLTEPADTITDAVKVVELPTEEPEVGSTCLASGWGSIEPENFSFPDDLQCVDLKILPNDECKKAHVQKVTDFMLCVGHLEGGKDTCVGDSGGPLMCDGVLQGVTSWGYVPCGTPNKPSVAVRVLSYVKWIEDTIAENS
Nature of the test: Measurement of tissue kallikrein inhibitory activity. The class given is biochemical. The conditions noted are these: activated tissue kallikrein activity (initial rate) inhibited by 50%; substrate D-valyl-L-leucyl-L-arginyl-p-nitroanilide; 37° C. How it is done: Measurement of tissue kallikrein inhibitory activity
Expression and purification of human activated tissue kallikrein was performed according to the method of Angermann (A. Angermann et al., Eur. J. Biochem., 206, 225-233 (1992)). That is, a gene was prepared by adding 6 residues of histidine to the C-terminal side of human pancreas kallikrein gene (D. Fukuchima et al, Biochemistry, 24, 8037-8043 (1985)), and tissue prokallikrein was expressed by a system using a baculovirus-insect cell (Sf21). Purified human tissue kallikrein was obtained from the culture supernatant by purification using a nickel chelate column (Ni-NTA, QIAGEN K. K.), digestion with TPCK trypsin and further nickel chelate column. To a solution (100 μL) of the human activated tissue kallikrein adjusted to 0.0625 μg/mL with an assay buffer (100 mM tris-hydrochloride buffer (pH 8.4) containing 0.2M NaCl, 0.02% Tween 20, and 0.1% PEG 6000) was added an assay buffer (containing 2% DMSO) solution (50 μL) of the test compound adjusted to the objective concentration, and the mixture was incubated at 37° C. for 10 minutes (min=minutes). Then, a 4 mM solution (50 μL) of D-valyl-L-leucyl-L-arginyl-p-nitroanilide hydrochloride (BACHEM AG) adjusted with the assay buffer was added, the absorbance was measured and the reaction rate was determined. As a control, a DMSO solution (50 μL) was added instead of the solution of the test compound. Absorbance was measured at a wavelength of 405 nm at 60 second intervals for 90 min using a Benchmark Plus Microplate Reader (BIO RAD). The negative logarithm value (abbreviated as pIC50) of the test compound concentration when the activated tissue kallikrein activity (initial rate) was inhibited by 50% without addition of the test compound was used as an index of the activated tissue kallikrein inhibitory activity.
Consider `O=C(Cc1c[nH]c2ccccc12)NC[C@H]1CCCN1c1ccc(C(F)(F)F)cc1` [Compound A-41], for which the IC50 is 0.209 µM.

`CC(C)[C@H](CC(=O)NCCc1ccccn1)Nc1ccc(C(F)(F)F)cc1` [Compound C-43] gave an IC50 of 0.0912 µM.

`CC(C)[C@H](CNC(=O)CCc1c[nH]c2ccccc12)Nc1ccc(C(F)(F)F)cc1` [Compound A-5] gave an IC50 of 0.0501 µM.

The compound `CC(C)[C@H](CNC(=O)[C@H](N)c1ccccc1)Nc1ccc(C(F)(F)F)cc1` [Compound A-9] showed a concentration for half-maximal inhibition (IC50) of 0.102 µM.

Turning to `CC(C)[C@H](CNC(=O)C1CCN(c2ccncc2)CC1)Nc1ccc(C(F)(F)F)cc1` [Compound A-14], the half-maximal inhibitory concentration (IC50) is 0.182 µM.

`CC(C)[C@H](CNC(=O)C(=O)c1c[nH]c2ccccc12)Nc1ccc(C(F)(F)F)cc1` [Compound A-12] gave an IC50 of 0.162 µM.

With `CC(C)[C@H](CNC(=O)CCN)Nc1ccc(C(F)(F)F)cc1` [Compound A-3], the IC50 was 0.0257 µM.

As for `CCCN1CCC(O)c2cc(C(F)(F)F)ccc21` (stereo not drawn) [Compound E-3, 1-propyl-6-(trifluoromethyl)-1,2,3,4-tetrahydroquinolin-4-ol], the IC50 is 0.245 µM.

With `CC(C)[C@H](CCNC(=O)Cc1cccs1)Nc1ccc(C(F)(F)F)cc1` [Compound A-50], the IC50 is 0.107 µM.

`CC(C)[C@H](CNC(=O)Cc1c[nH]c2ccccc12)Nc1ccc(C(F)(F)F)cc1N` [Compound A-58] gave an IC50 of 0.049 µM.

Take `CC(C)[C@H](CC(=O)NCc1ccccn1)Nc1ccc(C(F)(F)F)cc1` [Compound C-41]: the IC50 was 0.302 µM.

The compound `CC(C)[C@H](CCNC(=O)c1ccccc1)Nc1ccc(C(F)(F)F)cc1` [Compound A-47, N-((3S))-4-methyl-3-{[4-(trifluoromethyl)phenyl]amino}pentyl)benzamide trifluoroacetate] had a 50% inhibitory concentration (IC50) of 0.209 µM.

`CC(C)[C@H](CNC(=O)[C@H](N)Cc1c[nH]c2ccccc12)Nc1ccc(C(F)(F)F)cc1N` [Compound A-60] gave an IC50 of 0.135 µM.

`CC(C)[C@H](CNC(=O)/C=C/c1ccncc1)Nc1ccc(C(F)(F)F)cc1` [Compound A-13] had a concentration for half-maximal inhibition (IC50) of 0.178 µM.

For the compound `CC(C)[C@H](CC(=O)NCc1ccccc1)Nc1ccc(C(F)(F)F)cc1` [Compound C-40, (3S)-N-benzyl-4-methyl-3-{[4-(trifluoromethyl)phenyl]amino}pentanamide], the IC50 was 0.0646 µM.

For `O=C(Cc1ccccc1)NC[C@H]1CCCN1c1ccc(C(F)(F)F)cc1` [Compound A-39], the IC50 was 0.0417 µM.

Consider `CCNc1ccc(C(F)(F)F)cc1CO` [Compound E-2], for which 0.112 µM corresponded to half-maximal inhibition (IC50).

Take `CC(C)[C@H](CNC(=O)Cc1ccccn1)Nc1ccc(C(F)(F)F)cc1N` [Compound A-59]: the IC50 was 0.0832 µM.

`CC(C)[C@H](CNC(=O)Cc1cccnc1)Nc1ccc(C(F)(F)F)cc1` [Compound A-7] showed an IC50 of 0.0851 µM.

With `CC(C)[C@H](CNC(=O)[C@@H](O)c1ccccc1)Nc1ccc(C(F)(F)F)cc1` [Compound A-11], the IC50 was 0.158 µM.

`CC(C)[C@H](CNC(=O)C1(c2ccccc2)CC1)Nc1ccc(C(F)(F)F)cc1` [Compound A-16] had an IC50 of 0.263 µM.

Compound `CC(C)[C@H](CCNC(=O)C1CCN(c2ccncc2)CC1)Nc1ccc(C(F)(F)F)cc1` [Compound A-48] gave a 50% inhibitory concentration (IC50) of 0.0468 µM.

`O=C(Cc1ccccc1)NC[C@@H]1CCCN1c1ccc(C(F)(F)F)cc1` [Compound A-40] had an IC50 of 0.245 µM.

`CC(C)[C@H](CNC(=O)Cc1c[nH]c2ccccc12)Nc1ccc(C(F)(F)F)cc1` [Compound A-4] had an IC50 of 0.0295 µM.

`CC(C)[C@H](CC(=O)NCCc1ccccc1)Nc1ccc(C(F)(F)F)cc1` [Compound C-42] gave a half-maximal inhibitory concentration (IC50) of 0.129 µM.

Compound `CC(C)[C@H](CCNC(=O)Cc1c[nH]c2ccccc12)Nc1ccc(C(F)(F)F)cc1` [Compound A-51] showed an IC50 of 0.129 µM.

`CC(C)[C@H](CCNC(=O)c1ccc2ncccc2c1)Nc1ccc(C(F)(F)F)cc1` [Compound A-49] had a concentration for half-maximal inhibition (IC50) of 0.0468 µM.
